Test results reported in US6908919B2, “Substituted polycyclic aryl and heteroaryl pyrazinones useful for selective inhibition of the coagulation cascade” (Pharmacia Corporation, priority 1999, dated 2005).

biological target: Human factor Xa (Homo sapiens, UniProt P00742); assay: Xa Assay; type: biochemical; design: purchased Enzyme Research Laboratories, South Bend Ind; conditions: at 30 µM
Sequence (P00742 41-179 limits assumed): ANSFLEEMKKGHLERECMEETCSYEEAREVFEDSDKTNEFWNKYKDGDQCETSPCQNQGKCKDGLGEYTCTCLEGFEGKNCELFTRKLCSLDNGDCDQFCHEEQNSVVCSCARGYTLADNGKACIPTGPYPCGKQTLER
Sequence (P00742 235-488 limits assumed): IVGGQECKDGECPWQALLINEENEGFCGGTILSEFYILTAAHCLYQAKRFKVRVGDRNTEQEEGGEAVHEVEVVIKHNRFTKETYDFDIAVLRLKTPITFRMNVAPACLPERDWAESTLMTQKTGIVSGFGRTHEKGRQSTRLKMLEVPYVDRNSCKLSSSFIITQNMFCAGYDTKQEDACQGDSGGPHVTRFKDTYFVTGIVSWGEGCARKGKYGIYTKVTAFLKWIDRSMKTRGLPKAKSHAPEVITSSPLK

Compared with N=C(N)c1ccc(CNC(=O)Cn2c(-c3cccc(N)c3)c(Cl)nc(NC3CCC3)c2=O)c(F)c1 [1543-39], CCNc1nc(Cl)c(-c2cccc(N)c2)n(CC(=O)NCc2ccc(C(=N)N)cc2F)c1=O [1543-31] is lower in “% Inhibition Factor Xa (30 µM)” value: 14% for the first, 8% for the second.

CCCC(CCC)Nc1nc(Cl)c(-c2ccccc2)n(CC(=O)NCc2ccc(C(=N)N)cc2)c1=O [Example 1517-26] and N=C(N)c1ccc(CNC(=O)Cn2c(-c3ccsc3)c(Cl)nc(NCCc3ccccc3)c2=O)cc1 [Example 1517-13] are the same in “% Inhibition Factor Xa (30 µM)” value: 0% for the first, 0% for the second.

Going from CCCCNc1nc(Cl)c(-c2cccc(N)c2)n(CC(=O)NCc2ccc(C(=N)N)cc2F)c1=O [1543-36] to CCCNc1nc(Cl)c(-c2cccc(N)c2)n(CC(=O)NCc2ccc(C(=N)N)cc2F)c1=O [1543-35], the “% Inhibition Factor Xa (30 µM)” value falls from 15% to 8%.

Going from N=C(N)c1ccc(CNC(=O)Cn2c(-c3cccc(N)c3)c(Cl)nc(NCCCO)c2=O)cc1 [1543-13] to N=C(N)c1ccc(CNC(=O)Cn2c(-c3cccc(N)c3)c(Cl)nc(NCCCn3ccnc3)c2=O)cc1 [1543-07], the “% Inhibition Factor Xa (30 µM)” value rises from 12% to 19%.

Compared with N=C(N)c1ccc(CNC(=O)Cn2c(-c3cccc(N)c3)c(Cl)nc(NCCN3CCCC3)c2=O)cc1 [1543-03], N=C(N)c1ccc(CNC(=O)Cn2c(-c3cccc(N)c3)c(Cl)nc(NCCCN3CCCC3)c2=O)cc1 [1543-27] is lower in “% Inhibition Factor Xa (30 µM)” value: 34% for the first, 27% for the second.

Going from CC(CNc1nc(Cl)c(-c2cccc(N)c2)n(CC(=O)NCc2ccc(C(=N)N)cc2)c1=O)N(C)C (stereo not shown) [1543-19] to N=C(N)c1ccc(CNC(=O)Cn2c(-c3ccsc3)c(Cl)nc(NCCc3cccc(Cl)c3)c2=O)cc1 [Example 1517-19], the “% Inhibition Factor Xa (30 µM)” value falls from 11% to 0%.

C[C@@H](C(=O)NCc1ccc(C(=N)N)cc1)n1c(-c2ccccc2)c(Cl)nc(NCCc2ccccc2)c1=O [Example 1517-15] and CSCC(C(=O)NCc1ccc(C(=N)N)cc1)n1c(-c2ccccc2)c(Cl)nc(NCCc2ccccc2)c1=O (stereo not shown) [Example 1517-16] are the same in “% Inhibition Factor Xa (30 µM)” value: 0% for the first, 0% for the second.

For C[C@H](C(=O)NCc1ccc(C(=N)N)cc1)n1c(-c2ccccc2)c(Cl)nc(NCCc2cccc(Cl)c2)c1=O [Example 1517-23], the “% Inhibition Factor Xa (30 µM)” value was 0%.

same assay, conditions: at 30 µM inhibitor

First: N=C(N)c1ccc(CNC(=O)Cn2c(-c3ccccc3)c(Cl)nc(NC3CCS(=O)(=O)C3)c2=O)cc1 (stereo not shown) [1507-36]
Second: N=C(N)c1ccc(CNC(=O)Cn2c(-c3ccccc3)c(Cl)nc(NC3CCC3)c2=O)cc1 [1507-21]
The “% Inhibition Factor Xa (30 µM)” value of the first is lower: 0% for the first, 23% for the second.

First: Cc1c(Cl)nc(NCCc2ccccc2)c(=O)n1CC(=O)NCc1ccc(C(=N)N)cc1 [1471-7]
Second: Cc1c(Cl)nc(NCc2ccccc2)c(=O)n1CC(=O)NCc1ccc(C(=N)N)cc1 [1471-1]
The “% Inhibition Factor Xa (30 µM)” value of the first is lower: 4% for the first, 10% for the second.

Going from COc1ccc(-c2c(Cl)nc(NCCc3ccc(Cl)cc3)c(=O)n2CC(=O)NCc2ccc(C(=N)N)cc2)cc1 [1471-34] to N=C(N)c1ccc(CNC(=O)Cn2c(-c3ccc(Cl)cc3)c(Cl)nc(NCCc3ccc(Cl)cc3)c2=O)cc1 [1471-18], the “% Inhibition Factor Xa (30 µM)” value rises from 24% to 26%.

Going from N=C(N)c1ccc(CNC(=O)Cn2c(-c3ccccc3)c(Cl)nc(NCCc3ccc(Cl)c(Cl)c3)c2=O)cc1 [1507-44] to N=C(N)c1ccc(CNC(=O)Cn2c(-c3ccccc3)c(Cl)nc(NCCc3ccc(Cl)cc3)c2=O)cc1 [1471-10], the “% Inhibition Factor Xa (30 µM)” value rises from 9% to 45%.

First: CN(C)CCNc1nc(Cl)c(-c2ccccc2)n(CC(=O)NCc2ccc(C(=N)N)cc2)c1=O [1512-15]
Second: CCCCC(CC)Nc1nc(Cl)c(-c2ccccc2)n(CC(=O)NCc2ccc(C(=N)N)cc2)c1=O (stereo not shown) [1512-12]
The “% Inhibition Factor Xa (30 µM)” value of the first is higher: 6% for the first, 5% for the second.

First: COc1ccc(CCNc2nc(Cl)c(-c3ccccc3)n(CC(=O)NCc3ccc(C(=N)N)cc3)c2=O)cc1OC [1512-05]
Second: N=C(N)c1ccc(CNC(=O)Cn2c(-c3ccccc3)c(Cl)nc(NCCc3ccncc3)c2=O)cc1 [1471-13]
The “% Inhibition Factor Xa (30 µM)” value of the first is higher: 10% for the first, 0% for the second.

CSc1ccc(N)cc1-c1c(Cl)nc(NC(C)C)c(=O)n1CC(=O)NCc1ccc(C(=N)N)cc1 [Example 76] and CC(C)Nc1nc(Cl)c(-c2cc(N)ccc2F)n(CC(=O)NCc2ccc(C(=N)N)cc2F)c1=O [Example 73] are the same in “% Inhibition Factor Xa (30 µM)” value: 0% for the first, 0% for the second.

Going from N=C(N)c1ccc(CNC(=O)Cn2c(-c3ccccc3)c(Cl)nc(NC(c3ccccc3)c3ccccc3)c2=O)cc1 [1507-35] to N=C(N)c1ccc(CNC(=O)Cn2c(-c3ccccc3)c(Cl)nc(NCc3ccccc3Cl)c2=O)cc1 [1507-03], the “% Inhibition Factor Xa (30 µM)” value falls from 28% to 21%.

Compared with N=C(N)c1ccc(CNC(=O)Cn2c(-c3ccccc3)c(Cl)nc(NCCN3CCOCC3)c2=O)cc1 [1471-12], Cc1c(Cl)nc(NCCN2CCOCC2)c(=O)n1CC(=O)NCc1ccc(C(=N)N)cc1 [1471-4] is lower in “% Inhibition Factor Xa (30 µM)” value: 9% for the first, 0% for the second.

First: N=C(N)c1ccc(CNC(=O)Cn2c(-c3ccc4c(c3)OCO4)c(Cl)nc(NCCc3ccccc3)c2=O)cc1 [1471-47]
Second: N=C(N)c1ccc(CNC(=O)Cn2c(-c3ccc4c(c3)OCO4)c(Cl)nc(NCCc3cccc(Cl)c3)c2=O)cc1 [1471-46]
The “% Inhibition Factor Xa (30 µM)” value of the first is higher: 22% for the first, 21% for the second.

Going from N=C(N)c1ccc(CNC(=O)Cn2c(-c3ccccc3)c(Cl)nc(NCCC3=CCCCC3)c2=O)cc1 [1507-17] to N=C(N)c1ccc(CNC(=O)Cn2c(-c3ccccc3)c(Cl)nc(NCCc3cccnc3)c2=O)cc1 [1471-16], the “% Inhibition Factor Xa (30 µM)” value rises from 16% to 23%.

First: CCOc1ccccc1CNc1nc(Cl)c(-c2ccccc2)n(CC(=O)NCc2ccc(C(=N)N)cc2)c1=O [1512-11]
Second: N=C(N)c1ccc(CNC(=O)Cn2c(-c3ccccc3)c(Cl)nc(NCc3ccc(Cl)cc3)c2=O)cc1 [1507-46]
The “% Inhibition Factor Xa (30 µM)” value of the first is lower: 5% for the first, 8% for the second.

Compared with N=C(N)NC/C=C\CNC(=O)Cn1c(-c2ccccc2)cnc(NCCc2ccccc2)c1=O [Example 37], Nc1n[nH]c2ccc(CNC(=O)Cn3c(-c4ccccc4)cnc(NCCc4ccccc4)c3=O)cc12 [Example 38] is higher in “% Inhibition Factor Xa (30 µM)” value: 0% for the first, 22% for the second.

Going from CC1CCCC(Nc2nc(Cl)c(-c3ccccc3)n(CC(=O)NCc3ccc(C(=N)N)cc3)c2=O)C1C (stereo not shown) [1512-23] to N=C(N)c1ccc(CNC(=O)Cn2c(-c3ccccc3)c(Cl)nc(NC3CCCCCC3)c2=O)cc1 [1507-29], the “% Inhibition Factor Xa (30 µM)” value falls from 6% to 4%.

CSCC(C(=O)NCc1ccc(C(=N)N)cc1)n1c(-c2ccccc2)c(Cl)nc(NCc2ccccc2)c1=O (stereo not shown) [Example 1517-04] and C[C@H](C(=O)NCc1ccc(C(=N)N)cc1)n1c(-c2ccccc2)c(Cl)nc(NCc2ccccc2)c1=O [Example 1517-05] are the same in “% Inhibition Factor Xa (30 µM)” value: 0% for the first, 0% for the second.

Compared with N=C(N)c1ccc(CNC(=O)Cn2c(-c3cccc(Cl)c3)c(Cl)nc(NCCc3cccc(Cl)c3)c2=O)cc1 [1471-30], N=C(N)c1ccc(CNC(=O)Cn2c(-c3cccc(Cl)c3)c(Cl)nc(NCCc3ccncc3)c2=O)cc1 [1471-29] is lower in “% Inhibition Factor Xa (30 µM)” value: 41% for the first, 21% for the second.

Compared with CC(C)Nc1nc(Cl)c(-c2cccc(C(=O)O)c2)n(CC(=O)NCc2ccc(C(=N)N)cc2)c1=O [Example 65], COC(=O)c1cccc(-c2c(Cl)nc(NC(C)C)c(=O)n2CC(=O)NCc2ccc(C(=N)N)cc2)c1 [Example 64] is higher in “% Inhibition Factor Xa (30 µM)” value: 12% for the first, 19% for the second.

Going from N=C(N)c1ccc(CNC(=O)Cn2c(-c3ccccc3)c(Cl)nc(NCc3ccc(C(F)(F)F)cc3F)c2=O)cc1 [1512-26] to N=C(N)c1ccc(CNC(=O)Cn2c(-c3c(Cl)cccc3Cl)c(Cl)nc(NCc3ccccc3)c2=O)cc1 [Example 1517-06], the “% Inhibition Factor Xa (30 µM)” value falls from 5% to 0%.

Going from N=C(N)c1ccc(CNC(=O)Cn2c(-c3ccccc3O)c(Cl)nc(NC3CCC3)c2=O)cc1 [Example 66] to N=C(N)c1ccc(CNC(=O)Cn2c(-c3ccccc3)c(Cl)nc(NC3CCCCCC3)c2=O)cc1 [1512-16], the “% Inhibition Factor Xa (30 µM)” value rises from 0% to 10%.

CCc1c(Cl)nc(NCCc2ccc(Cl)cc2)c(=O)n1CC(=O)NCc1ccc(C(=N)N)cc1 [1471-58] and CCc1c(Cl)nc(NCCc2ccncc2)c(=O)n1CC(=O)NCc1ccc(C(=N)N)cc1 [1471-61] are the same in “% Inhibition Factor Xa (30 µM)” value: 0% for the first, 0% for the second.

First: CCc1c(Cl)nc(NCCc2ccccc2)c(=O)n1CC(=O)NCc1ccc(C(=N)N)cc1 [1471-63]
Second: CCc1c(Cl)nc(NCc2ccncc2)c(=O)n1CC(=O)NCc1ccc(C(=N)N)cc1 [1471-59]
The “% Inhibition Factor Xa (30 µM)” value of the first is higher: 2% for the first, 0% for the second.

Going from CCc1c(Cl)nc(NCCN2CCOCC2)c(=O)n1CC(=O)NCc1ccc(C(=N)N)cc1 [1471-60] to N=C(N)c1ccc(CNC(=O)Cn2c(-c3ccc4c(c3)OCO4)c(Cl)nc(NCCc3ccncc3)c2=O)cc1 [1471-45], the “% Inhibition Factor Xa (30 µM)” value rises from 0% to 24%.

Going from C[C@@H](C(=O)NCc1ccc(C(=N)N)cc1)n1c(-c2ccccc2)c(Cl)nc(NC2CCC2)c1=O [Example 1517-09] to N=C(N)c1ccc(CNC(=O)Cn2c(-c3ccccc3)c(Cl)nc(NC3CCS(=O)(=O)C3)c2=O)cc1 (stereo not shown) [1512-19], the “% Inhibition Factor Xa (30 µM)” value rises from 0% to 3%.

First: N=C(N)c1ccc(CNC(=O)Cn2c(-c3ccccc3)c(Cl)nc(NCCCCc3ccccc3)c2=O)cc1 [1507-43]
Second: CC(C)Nc1ncc(-c2cccc(N)c2)n(CC(=O)NCc2ccc(C(=N)N)c(F)c2)c1=O [Example 43]
The “% Inhibition Factor Xa (30 µM)” value of the first is higher: 21% for the first, 0% for the second.

Going from N=C(N)c1ccc(CNC(=O)Cn2c(-c3cccc4ccccc34)c(Cl)nc(NCCc3ccccc3)c2=O)cc1 [Example 80] to N=C(N)c1ccc(CNC(=O)Cn2c(-c3cccc(N)c3)c(Cl)nc(NCCc3ccccc3)c2=O)cc1 [Example 86], the “% Inhibition Factor Xa (30 µM)” value falls from 29% @ 30 to 26% @ 30.

For Cc1cccc(-c2cnc(NCCc3ccccc3)c(=O)n2CC(=O)NCc2ccc(C(=N)N)cc2)c1 [Example 85], the “% Inhibition Factor Xa (30 µM)” value was 42% @ 30.

same assay, conditions: inhibitor at 100 µM

In the case of O=C(Cn1c(-c2ccc(Cl)cc2)c(Cl)nc(NCCN2CCOCC2)c1=O)NCCc1ccncc1 [Example E-0031], the “% Inhibition Factor Xa (100 µM)” value is reported as 0%.
